The values that follow come from US8969335B2, “Benzonitrile derivatives as kinase inhibitors” (MERCK PATENT GmbH, priority 2011, dated 2015).

As a reminder, the IC50 is the concentration that inhibits the measured activity by half.

Structures are written as SMILES. Like-named read-outs stand apart in the source and are kept apart here.

Experiment [1] has as its target TANK binding kinase (TBK1) (Homo sapiens (Human), UniProt Q9UHD2). Description: TBK1 enzyme assay (384-well flashplate kinase assay). The format is biochemical. The note with it: 0.6 nM TBK1, 10 μM ATP, 30° C., 120 min.
Protocol: Test for the Inhibition of TBK1
0.6 nM TANK binding kinase (TBK1), 800 nM biotinylated MELK-derived peptide (Biotin-Ah-Ah-[sequence]) and 10 μM ATP (spiked with 0.25 μCi of ^33P-ATP/well) are incubated at 30° C. for 120 min in a total volume of 50 μl (10 mM MOPS, 10 mM Mg acetate, 0.1 mM EGTA, 1 mM DTT, 0.02% of Brij35, 0.1% of BSA, pH 7.5) with or without test compound. The reaction is stopped with 25 μl of 200 mM EDTA. After 30 min at room temperature, the liquid is removed, and each well is washed three times with 100 μl of 0.9% sodium chloride solution. Non-specific reaction is measured in the presence of 100 nM staurosporine. The radioactivity is measured in a Topcount (PerkinElmer).
Another experiment has as its target IKKε (Homo sapiens (Human), UniProt Q14164). Description: IKKε kinase assay (384-well flashplate assay). The format is biochemical. The note with it: 1 nM IKKε, 10 μM ATP, 30° C., 2 hours; read-out: IKKε enzyme assay IC50. On the procedure: Test for the Inhibition of IKKε
IKKε—Kinase Assay (IKKepsilon)
The kinase assay is performed as 384-well flashplate assay (for example for Topcount measurement).
1 nM IKKε, 800 nM biotinylated IκBα(19-42) peptide (Biotin-C6-C6-[…]) and 10 μM ATP (spiked with 0.3 μCi of ^33P-ATP/well) are incubated at 30° C. for 2 hours in a total volume of 50 μl (10 mM MOPS, 10 mM Mg acetate, 0.1 mM EGTA, 1 mM dithiothreitol, 0.02% of Brij35, 0.1% of BSA, 0.1% of BioStab, pH 7.5) with or without test compound. The reaction is stopped using 25 μl of 200 mM EDTA. After 30 min at room temperature, the liquid is removed, and each well is washed three times with 100 μl of 0.9% sodium chloride solution. Non-specific reaction is determined in the presence of 3 μM MSC2119074 (BX-795). The radioactivity is measured using a Topcount (PerkinElmer). The results (for example IC50 values) are calculated using program tools provided by the IT Department (for example AssayExplorer, Symyx).

In experiment [2] the test system is TBK1 + IKKε (phospho-IRF3 @ Ser 386, MDA-MB-468 cells). Put plainly: TBK1 + IKKε cell assay: dose response inhibition of phospho-IRF3 @ Ser 386 in MDA-MB-468 cells. The format is cell-based. As to conditions: Homo sapiens.
Protocol: Day 1: MDA-MB-468 cells are detached using HyQ-Tase, counted and sown into a 384-well plate with TC surface and clear bottom in a density of 10,000 cells per well in a total volume of 35 μl of complete medium. Alternatively, the cells are sown directly from frozen glass vials.
Day 2: The cells are pre-treated with inhibitor compounds for 1 h prior to poly(I:C) stimulation. After incubation for 2 h with poly(I:C), the cells are fixed in (para)formaldehyde (PFA) and permeabilised using methanol (MeOH). The cells are then blocked and incubated with an anti-pIRF3 antibody at 4° C. overnight.
Day 3: The primary antibody is washed off, an AlexaFluor488-conjugated secondary antibody is added, the cells are contrast-stained with propidium iodide, followed by image acquisition on an IMX ultra-high content reader.
The mark [3] stands for this setting: poly(I:C) stimulation, nuclear phospho-IRF3, read-out: TBK1 + IKKε cell assay IC50.

TANK binding kinase (TBK1), sequence (Q9UHD2 whole entry): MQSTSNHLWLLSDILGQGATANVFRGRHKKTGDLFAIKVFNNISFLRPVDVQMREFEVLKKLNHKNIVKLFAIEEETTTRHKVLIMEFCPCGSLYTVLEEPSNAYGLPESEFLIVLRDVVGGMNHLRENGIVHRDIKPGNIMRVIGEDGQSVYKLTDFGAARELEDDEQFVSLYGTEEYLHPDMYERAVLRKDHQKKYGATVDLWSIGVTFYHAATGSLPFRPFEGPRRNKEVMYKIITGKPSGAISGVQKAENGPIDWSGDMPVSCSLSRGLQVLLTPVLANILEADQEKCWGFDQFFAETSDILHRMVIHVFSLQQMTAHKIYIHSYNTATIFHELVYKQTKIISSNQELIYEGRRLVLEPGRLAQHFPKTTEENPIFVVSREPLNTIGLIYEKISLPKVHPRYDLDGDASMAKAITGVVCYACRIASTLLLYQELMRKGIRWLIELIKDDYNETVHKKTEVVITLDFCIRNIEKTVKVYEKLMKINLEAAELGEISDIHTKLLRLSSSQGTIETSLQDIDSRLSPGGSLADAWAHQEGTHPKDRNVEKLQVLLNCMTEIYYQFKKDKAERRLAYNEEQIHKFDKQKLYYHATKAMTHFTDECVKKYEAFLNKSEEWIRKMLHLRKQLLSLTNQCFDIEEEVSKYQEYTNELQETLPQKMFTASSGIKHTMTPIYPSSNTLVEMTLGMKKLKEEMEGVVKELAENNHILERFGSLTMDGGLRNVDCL
IKKε, sequence (Q14164 whole entry): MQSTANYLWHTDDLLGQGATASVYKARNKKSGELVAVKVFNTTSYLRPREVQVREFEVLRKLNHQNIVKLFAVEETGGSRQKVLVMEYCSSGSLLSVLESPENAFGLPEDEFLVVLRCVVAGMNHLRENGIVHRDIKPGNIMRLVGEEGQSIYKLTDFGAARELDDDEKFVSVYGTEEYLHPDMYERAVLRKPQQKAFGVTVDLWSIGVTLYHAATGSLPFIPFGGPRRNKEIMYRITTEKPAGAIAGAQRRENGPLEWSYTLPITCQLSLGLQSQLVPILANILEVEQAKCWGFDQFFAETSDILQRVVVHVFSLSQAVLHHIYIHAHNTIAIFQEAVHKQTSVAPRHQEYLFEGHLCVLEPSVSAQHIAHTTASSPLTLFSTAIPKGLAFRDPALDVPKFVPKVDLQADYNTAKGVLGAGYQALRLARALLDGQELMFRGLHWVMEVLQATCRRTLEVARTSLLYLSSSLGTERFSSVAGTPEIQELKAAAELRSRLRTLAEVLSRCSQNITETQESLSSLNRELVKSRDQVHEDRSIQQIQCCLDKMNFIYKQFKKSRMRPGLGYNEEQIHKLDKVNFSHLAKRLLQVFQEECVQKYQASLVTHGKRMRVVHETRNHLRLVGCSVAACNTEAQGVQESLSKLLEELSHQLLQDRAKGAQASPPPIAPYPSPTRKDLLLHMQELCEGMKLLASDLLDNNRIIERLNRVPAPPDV

Consider `N#Cc1cc(-c2ccnc(Nc3ccc(-c4cn[nH]c4)cn3)c2)ccc1OC1CCOCC1` [Compound A9, 5-{2-[5-(1H-Pyrazol-4-yl)pyridin-2-ylamino]pyridin-4-yl}-2-(tetrahydropyran-4-yloxy)benzonitrile], for which the results for the IC50 (in experiment [1]; at IKKε; in experiment [2] (setting [3])) were 120 nM, 100 nM and 3000 nM, respectively.

Take `N#Cc1cc(-c2ccnc(Nc3cnn(CCC4CCNCC4)c3)c2)ccc1OC1CCOCC1` [Compound A21, 5-{2-[1-(2-Piperidin-4-ylethyl)-1H-pyrazol-4-ylamino]pyridin-4-yl}-2-(tetrahydropyran-4-yloxy)benzonitrile]: the half-inhibitory concentration (IC50) in experiment [1] turned out to be 70 nM; at IKKε, 37 nM; in experiment [2] (setting [3]), 5300 nM.

As to `N#Cc1cc(-c2ccnc(Nc3cnc(C4CCNCC4)cn3)c2)ccc1OC1CCOCC1` [Compound A72, 5-[2-(5-piperidin-4-ylpyrazin-2-ylamino)pyridin-4-yl]-2-(tetrahydropyran-4-yloxy)benzonitrile], the IC50 in experiment [1] is 10 nM; on IKKε, 7 nM; in experiment [2] (setting [3]) it was 840 nM.

With `N#Cc1cc(-c2ccnc(Nc3ncc(C4CCNCC4)cn3)c2)ccc1OC1CCOCC1` [Compound A66, 5-[2-(5-piperidin-4-ylpyrimidin-2-ylamino)pyridin-4-yl]-2-(tetrahydropyran-4-yloxy)benzonitrile], the IC50 stood at 100 nM in experiment [1], 82 nM at IKKε and 4900 nM in experiment [2] (setting [3]).

In the case of `COCCCn1cc(Nc2cc(-c3ccc(OC4CCOCC4)c(C#N)c3)ccn2)cn1` [Compound A23, 5-{2-[1-(3-Methoxypropyl)-1H-pyrazol-4-ylamino]pyridin-4-yl}-2-(tetrahydropyran-4-yloxy)benzonitrile], the half-inhibitory concentration (IC50) stood at 120 nM in experiment [1], 160 nM on IKKε and 7800 nM in experiment [2] (setting [3]).

Regarding `COCCn1cc(Nc2nccc(-c3ccc(OCC4CCC4)c(C#N)c3)n2)cn1` [Compound A103, 2-cyclobutylmethoxy-5-{2-[1-(2-methoxyethyl)-1H-pyrazol-4-ylamino]pyrimidin-4-yl}benzonitrile], the IC50 in experiment [1] is 7 nM; at IKKε, 8 nM; in experiment [2] (setting [3]), 890 nM.

For the molecule `Cc1cc(Nc2nccc(-c3ccc(OC4CCOCC4)c(C#N)c3)n2)no1` [Compound A80, 5-[2-(5-methylisoxazol-3-ylamino)pyrimidin-4-yl]-2-(tetrahydropyran-4-yloxy)benzonitrile], the IC50 is 230 nM in experiment [1], 210 nM on IKKε and 13000 nM in experiment [2] (setting [3]).

As to `N#Cc1cc(-c2ccnc(Nc3cnn(CCC4CCN(C(=O)CO)CC4)c3)c2)ccc1OC1CCOCC1` [Compound A29, 5-[2-(1-{2-[1-(2-Hydroxyacetyl)piperidin-4-yl]ethyl}-1H-pyrazol-4-ylamino)pyridin-4-yl]-2-(tetrahydropyran-4-yloxy)benzonitrile], the IC50 worked out at 120 nM in experiment [1], 88 nM at IKKε and 6700 nM in experiment [2] (setting [3]).

`N#Cc1cc(-c2ccnc(Nc3cnn(CCO)c3)n2)ccc1OCC1CCC1` [Compound A94, 2-cyclobutylmethoxy-5-{2-[1-(2-hydroxyethyl)-1H-pyrazol-4-ylamino]pyrimidin-4-yl}benzonitrile]: the half-maximal inhibitory concentration (IC50) came to 14 nM in experiment [1], 18 nM on IKKε and 980 nM in experiment [2] (setting [3]).

With `Cc1coc(Nc2nccc(-c3ccc(OC4CCOCC4)c(C#N)c3)n2)n1` [Compound A93, 5-[2-(4-methyloxazol-2-ylamino)pyrimidin-4-yl]-2-(tetrahydropyran-4-yloxy)benzonitrile], the IC50 in experiment [1] was determined as 550 nM; at IKKε it was 310 nM.

With `N#Cc1cc(-c2ccnc(Nc3cc(CO)ccn3)c2)ccc1OC1CCOCC1` [Compound A18, 5-[2-(4-Hydroxymethylpyridin-2-ylamino)pyridin-4-yl]-2-(tetrahydropyran-4-yloxy)benzonitrile], the results for the IC50 (in experiment [1]; at IKKε) were 8 nM and 13 nM, respectively.

As to `CC(=O)N1CCC(COc2ccc(-c3ccnc(Nc4cnn(C5CCNCC5)c4)c3)cc2C#N)CC1` [Compound A116, 2-(1-acetylpiperidin-4-ylmethoxy)-5-[2-(1-piperidin-4-yl-1H-pyrazol-4-ylamino)pyridin-4-yl]benzonitrile], the IC50 in experiment [1] was 6600 nM; on IKKε it was 190 nM.

For the molecule `N#Cc1cc(-c2ccnc(Nc3cc(N4CCOCC4)ccn3)c2)ccc1OC1CCOCC1` [Compound A82, 5-[2-(4-morpholin-4-ylpyridin-2-ylamino)pyridin-4-yl]-2-(tetrahydropyran-4-yloxy)benzonitrile], the IC50 turned out to be 230 nM in experiment [1] and 150 nM at IKKε.

With `N#Cc1cc(-c2ccnc(Nc3cncc(N4CCOCC4)n3)c2)ccc1OC1CCOCC1` [Compound A85, 5-[2-(6-morpholin-4-ylpyrazin-2-ylamino)pyridin-4-yl]-2-(tetrahydropyran-4-yloxy)benzonitrile], the IC50 was determined as 330 nM in experiment [1] and 390 nM on IKKε.

For the molecule `CN1CCN(c2ccnc(Nc3cc(-c4ccc(OC5CCOCC5)c(C#N)c4)ccn3)c2)CC1` [Compound A84, 5-{2-[4-(4-methylpiperazin-1-yl)pyridin-2-ylamino]pyridin-4-yl}-2-(tetrahydropyran-4-yloxy)benzonitrile], the figures for the IC50 (in experiment [1]; at IKKε) were 350 nM and 210 nM, respectively.

Take `N#Cc1cc(-c2ccnc(Nc3cncc(C4=CCCCO4)n3)c2)ccc1OC1CCOCC1` [Compound A92, 5-{2-[6-(5,6-dihydro-4H-pyran-2-yl)pyrazin-2-ylamino]pyridin-4-yl}-2-(tetrahydropyran-4-yloxy)benzonitrile]: the concentration for half-maximal inhibition (IC50) worked out at 850 nM in experiment [1] and 930 nM on IKKε.

On to `N#Cc1cc(-c2ccnc(Nc3ccc(CO)cn3)c2)ccc1OCC1CCC1` [Compound A111, 2-cyclobutylmethoxy-5-[2-(5-hydroxymethylpyridin-2-ylamino)pyridin-4-yl]benzonitrile], for which the values for the IC50 (in experiment [1]; on IKKε) were 89 nM and 200 nM, respectively.

Take `N#Cc1cc(-c2ccnc(Nc3cnn(C[C@H]4C[C@@H]4CO)c3)c2)ccc1OC1CCOCC1` [Compound A26, 5-{2-[1-((1S,2S)-2-Hydroxymethylcyclopropylmethyl)-1H-pyrazol-4-ylamino]-pyridin-4-yl}-2-(tetrahydropyran-4-yloxy)benzonitrile]: the values for the IC50 (in experiment [1]; on IKKε) were 18 nM and 27 nM, respectively.

As for `N#Cc1cc(-c2ccnc(Nc3cc(C4=CCCCO4)ccn3)c2)ccc1OC1CCOCC1` [Compound A86, 5-{2-[4-(5,6-dihydro-4H-pyran-2-yl)pyridin-2-ylamino]pyridin-4-yl}-2-(tetrahydropyran-4-yloxy)benzonitrile], the IC50 in experiment [1] stood at 290 nM; on IKKε, 300 nM.

With `N#Cc1cc(-c2ccnc(Nc3cc(C(=O)O)ccn3)c2)ccc1OC1CCOCC1` [Compound A65, 2-{4-[3-cyano-4-(tetrahydropyran-4-yloxy)phenyl]pyridin-2-ylamino}isonicotinic acid], the concentration for half-maximal inhibition (IC50) in experiment [1] was determined as 170 nM; at IKKε it was 120 nM.

On to `N#Cc1cc(-c2ccnc(Nc3ccc(=O)[nH]n3)n2)ccc1OC1CCOCC1` [Compound A69, 5-[2-(6-oxo-1,6-dihydropyridazin-3-ylamino)pyrimidin-4-yl]-2-(tetrahydropyran-4-yloxy)benzonitrile], for which the figures for the IC50 (in experiment [1]; on IKKε) were 1600 nM and 650 nM, respectively.

As to `N#Cc1cc(-c2ccnc(Nc3cnn(C4CNC4)c3)c2)ccc1OC1CCOCC1` [Compound A25, 5-[2-(1-Azetidin-3-yl-1H-pyrazol-4-ylamino)pyridin-4-yl]-2-(tetrahydropyran-4-yloxy)benzonitrile], the results for the IC50 (in experiment [1]; at IKKε) were 290 nM and 67 nM, respectively.

Turning to `COCCn1cc(Nc2cc(-c3ccc(OCC4CC4)c(C#N)c3)ccn2)cn1` [Compound A105, 2-cyclopropylmethoxy-5-{2-[1-(2-methoxyethyl)-1H-pyrazol-4-ylamino]-pyridin-4-yl}benzonitrile], the IC50 in experiment [1] is 220 nM; on IKKε it was 65 nM.

For `N#Cc1cc(-c2ccnc(Nc3nccc(C4CCNCC4)n3)c2)ccc1OC1CCOCC1` [Compound A89, 5-[2-(4-piperidin-4-ylpyrimidin-2-ylamino)pyridin-4-yl]-2-(tetrahydropyran-4-yloxy)benzonitrile], the IC50 came to 140 nM in experiment [1] and 120 nM at IKKε.

Take `N#Cc1cc(-c2ccnc(Nc3nc(C4CC4)cs3)n2)ccc1OC1CCOCC1` [Compound A87, 5-[2-(4-cyclopropylthiazol-2-ylamino)pyrimidin-4-yl]-2-(tetrahydropyran-4-yloxy)benzonitrile]: the IC50 (in experiment [1]; on IKKε) was 300 nM throughout.

As to `O=C(NCCCNc1nc(Nc2cccc(NC(=O)N3CCCC3)c2)ncc1I)c1cccs1` [BX-795, reference compound], the IC50 in experiment [2] (reference inhibitor range, read-out: IC50 of reference inhibitor in phospho-IRF3 cell assay) was 200 to 800 nM.

As for `N#Cc1cc(-c2ccnc(Nc3cnn(CC4CCOC4)c3)n2)ccc1OC1CCOCC1` (centres unmarked) [Compound A41, 5-{2-[1-(Tetrahydrofuran-3-ylmethyl)-1H-pyrazol-4-ylamino]pyrimidin-4-yl}-2-(tetrahydropyran-4-yloxy)benzonitrile], the IC50 stood at 12 nM in experiment [1] and 25 nM at IKKε.
